Experiments:
[1] = tested on: DSS-induced visceral hypersensitivity; assay: DSS-induced colitis visceral hypersensitivity, visceromotor response to colorectal distension; type: in vivo, mouse; conditions: DSS 3% 5 days; 100 μL intracolonic 10 μM at day 5; CRD 15-60 mm Hg
Protocol: FIG. 9: C12-Asn-GABA Inhibits DSS-induced visceral hypersensitivity. Mice received DSS 3% in their drinking water for 5 days to induce colitis. At day 5, mice were intracolonically administrated with C12-Asn-GABA (10 μM; black circles) or vehicle (40% ethanol; white circles). Thirty minutes after intracolonic administration, visceromotor response (VMR) to increasing pressures of colorectal distension was performed. Data are expressed as mean±SEM, n=5 mice per group.
The analgesic properties of the C12-Asn-GABA was assessed in a mouse colitis model. Dextran sulfate sodium (DSS) at 3% during 5 days was added in the drinking water in order to induce colitis.

[2] = tested on: capsaicin-induced visceral hypersensitivity; assay: Capsaicin-induced visceral hypersensitivity, visceromotor response to colorectal distension; type: in vivo, mouse
Protocol: FIG. 6: C12-Asn-GABA inhibits capsaicin-induced visceral hypersensitivity without altering Intestinal contraction. Mice received intracolonic administration of C12-Asn-GABA (10 μM; black symbols) or vehicle (40% ethanol; white symbols) and 30 minutes or 4 hours later colon (A) and blood (B) were harvested in order to quantify C12-Asn-GABA by LC-MS/MS. Data are expressed as mean±SEM, n=8 mice per group. […] Mice received intracolonic administration of C12-Asn-GABA (10 μM; black symbols) or vehicle (40% ethanol; white symbols) and 30 minutes or 4 hours later an intracolonic administration of capsaicin (100 μg/mouse; square) or its vehicle (40% ethanol; circle). Fifteen minutes after capsaicin or vehicle treatment, visceromotor response (VMR) to increasing pressures of colorectal distension was performed. Data are expressed as mean±SEM, n=7-8 mice per group. […] Ex vivo measurement of duodenal mechanical contraction frequency (B) and amplitude (C) in response to Krebs-Ringer solution (control; white bar), to DMSO 0.2% (vehicle; gray bar) or to C12-Asn-GABA (10 μM; black bar). Data are expressed as mean±SEM, n=5-6 per group. Statistical analysis was performed using Kruskal-Wallis analysis of variance and subsequent Dunn's post hoc test.
FIG. 8: Trimebutine maleate has no effect on capsaicin-induced visceral hypersensitivity. Mice received an oral treatment with vehicle (PEG200, white circle) or with trimebutine maleate (25 mg/kg, black circle) and 4 hours later an intracolonic administration of capsaicin (100 μg/mouse; black and white circle). Fifteen minutes after capsaicin, visceromotor response (VMR) to increasing pressures of colorectal distension was performed. Data are expressed as mean±SEM, n=7-8 mice per group. […]
In a first set of experiment, we assessed the ability of the C12-Asn-GABA to cross the epithelial barrier, in vivo. […] The impact of C12-Asn-GABA on visceral hypersensitivity was assessed by measuring the visceromotor responses (VMR) to colorectal distension (CRD). […]

[3] = tested on: mouse sensory neurons activated by capsaicin; assay: Calcium flux in sensory neurons activated by capsaicin (TRPV1 agonist); type: cell-based; conditions: capsaicin 125 nM; pretreatment with increasing amounts of compound
Protocol: FIG. 4: C12-Asn-GABA inhibits neuronal activation via the GABA B receptor. Amplitude of intracellular calcium mobilization (ΔF/F; right panel) in mouse sensory neurons and percentage of responding neurons (left panel) pretreated with increasing amounts of C12-Asn-GABA (black circle) or vehicle (HBSS; white circle) and treated with capsaicin (125 nM; A) or a mix of G protein coupled receptor agonists (histamine, serotonin and bradykinin 10 μM each; B). Data are represented as mean±SEM; n=4 independent experiments of 3 wells per condition and 30-80 neurons per well. […] Percentage of responding neurons pretreated with increasing amounts of saclofen (black circle) or vehicle (HBSS; white circle) and treated with C12-Asn-GABA (10 μM) and capsaicin (125 nM; C) or a mix of G protein coupled receptor agonist (histamine, serotonin and bradykinin 10 μM each; D). Data are represented as mean±SEM; n=4 independent experiments of 3 wells per condition and 30-80 neurons per well.
FIG. 7: C14-Asn-GABA inhibits neuronal activation by capsaicin. Amplitude of intracellular calcium mobilization (F/F; A) in mouse sensory neurons and percentage of responding neurons (B) pretreated with 10 μM of C14-Asn-GABA (black bar) or vehicle (HBSS; white bar) and treated with capsaicin (125 nM). Data are represented as mean±SEM; n=3 independent experiments of 3 wells per condition and 35-82 neurons per well.
Male C57B16 mice (6-8 weeks) were used to produce primary cultures of dorsal root ganglia (DRG) sensory neurons for calcium flux experiments, and to perform studies of colorectal distention and intestinal isotonic contraction. All procedures were approved by Institutional Animal Care Committees (CEEA 122).
To determine whether C12-Asn-GABA or C12-Asn-BABA is capable of signaling to sensory nerves, calcium mobilization studies were performed on primary cultures of mouse dorsal root ganglia (DRG) neurons. […]

For `CCCCCCCCCCCC(=O)NC(CC(N)=O)C(=O)NCCCC(=O)O` (stereo not shown) [C12-Asn-GABA, C11 C(O)-Asn-gamma-aminobutyric acid], the “DSS-induced increase in VMR to CRD” value [1] was “significantly decreased for all distension pressures”, the “capsaicin-evoked increase in VMR to CRD” value ([2]; 100 μL intracolonic 10 μM pretreatment, capsaicin 100 μg/animal, CRD 15-60 mm Hg) was “significantly prevented for all distension pressures” and the “visceral sensitivity in response to CRD in the absence of capsaicin” value ([2]; intracolonic 10 μM, no capsaicin) was “did not modify visceral sensitivity”. For the same compound, the “calcium flux increase induced by capsaicin (% responding neurons, amplitude ΔF/F)” value [3] was “prevented by C12-Asn-GABA pretreatment in a dose-dependent manner”.

— patent publication US11912645B2, “Lipopeptide compounds for the treatment of pain disorders” (INSERM (Institut National de la Santé et de la Recherche …, priority 2017, dated 2024)
